Read-outs that look alike come from different tables or passages of the source.
How the values were obtained:
[1] = system: rat peritoneal mast cells; assay: Mast cell stabilization test: induced histamine release; assay type: cell-based, Wistar male rats; conditions: at the concentrations used: sodium cromoglycate 0.005 %, menthol 0.025 %, camphor 0.015 %, eucalyptol 0.0075 %
Procedure: (§1) Peritoneal rat mast cells are collected from 250 to 300 g Wistar male rats by the following procedure. Following sacrifice, each rat is injected into the peritoneal cavity with 10 ml of ice cold HEPES-buffered salt solution (HBSS), pH 7.2, containing 5 U/ml heparin. The HBSS contains 137 mM of […], 10mM HEPES, 5mM D-glucose, 2.7 mM KCl, 0.4 mM NaH₂PO₄, 0.5 mM MgCl₂ and 1 % foetal calf serum (FCS). The abdomen is massaged gently for 2 to 3 minutes and then an incision is made in the abdomen, the buffer removed by a pipette, and the peritoneal cavity lavaged twice with ice-cold HBSS. The extract is then centrifuged at 200 rpm for 10 minutes at 20°C to collect the peritoneal mast cells. These cells are then suspended again in HBSS. A count of cells present is made using an aliquot of this suspension by staining with Kimura metachromatic stain. Typically, about 1.2 to 1.7x10⁶ mast cells are collected from each animal. The rat mast cells are then activated using a Compound 48/80 in the presence of the test aromatic and antihistamine compounds and histamine-release measured as follows. 720 µl aliquots containing 9 x 10⁴ mast cells at 37°C are added to vials containing various combinations of aromatic flavour compounds. The concentrations of tyloxapol, menthol, camphor, and eucalyptol are 0.7 %, 0.025 %, 0.015 %, and 0.0075 % respectively. The solutions are incubated for about 10 minutes before 200 µl aliquots are added to tubes containing 25 µl of Compound 48/80, 25 µl of sodium cromoglycate and/or buffer, giving a concentration of Compound 48/80 and sodium cromoglycate in the tubes of […] and 0.005 % respectively. The histamine release reactions in the tubes is terminated after 10 minutes (37°C) by adding 750 µl of ice-cold HBSS and centrifuging the resulting solution for 10 minutes at 2000 rpm at 4°C. The histamine released by stimulus and the total cell histamine content are respectively determined by assaying the supernatant liquid after acidification with 5 % trichloroacetic acid (TCA) and by disintegrating the cells in 5 % (TCA) followed by analysis by automated spectrofluoremetry. […] (The net histamine release induced by compound 48/80 at the concentration used (0.1 µg/ml) was about three times the net histamine release induced by tyloxapol (15.07 ± 2.0 %)).

[2] = system: rat peritoneal mast cells; assay: Mast cell stabilization test: histamine release inhibition; assay type: cell-based, Wistar male rats; conditions: for inhibition at 100 µM: Rattus norvegicus, Mast cell, 100 µM of sodium cromoglycate
Procedure: as §1, with “Eucalyptol” for “(The net histamine release induced by compound 48/80”, “0.0075 % gave a 9 % (non-significant) inhibitory effect. Menthol at 0.025 %” for “the concentration used (0.1 µg/ml)”, “not effective.” for “about three times the net histamine release induced by tyloxapol (15.07 ± 2.0 %)).”

Row | SMILES | release of histamine induced by the substance [1] | inhibition of histamine release against Compound 48/80 and tyloxapol-induced histamine release ([2]; camphor at 0.015 %, series of five experiments) | inhibitory effect on histamine release ([2]; eucalyptol at 0.0075 %, non-significant) | inhibition of histamine release ([2]; menthol at 0.025 %) | inhibition at 100 µM ([2]; read-out: inhibition of Compound 48/80-induced histamine release) | inhibition at 100 µM ([2]; read-out: inhibition of tyloxapol-induced histamine release)
1 | CC12CCC(CC1=O)C2(C)C (stereo not drawn) [camphor] | did not induce release of histamine | 45% | – | – | – | –
2 | CC12CCC(CC1)C(C)(C)O2 [eucalyptol] | did not induce release of histamine | – | 9% | – | – | –
3 | CC1CCC(C(C)C)C(O)C1 (stereo not drawn) [menthol] | did not induce release of histamine | – | – | not effective | – | –
4 | O=C(O)c1cc(=O)c2c(OCC(O)COc3cccc4oc(C(=O)O)cc(=O)c34)cccc2o1 [sodium cromoglycate] | did not induce release of histamine | – | – | – | 67% | 152%
